These results are taken from patent publication US10913727B2, “Modulators of the integrated stress pathway” (Calico Life Sciences LLC, priority 2016, dated 2021).

SMILES strings stand for the structures. Where only a bound is given, the exact number is not on record here.

In the assay the test system is HEK293T cells carrying the ATF4 luciferase reporter. Put plainly: ATF4-Luc assay, in vitro model of Vanishing Cell White Matter Disease (VWMD). The assay is classed as cell-based. The following applies: Homo sapiens, HEK-293T, 1 μg/mL tunicamycin, 7 hours, One Glo luminescence. How it is done: In order to test exemplary compounds of the invention in a cellular context, a stable VWMD cell line was first constructed. The ATF4 reporter was prepared by fusing the human full-length ATF4 5′-UTR (NCBI Accession No. BC022088.2) in front of the firefly luciferase (FLuc) coding sequence lacking the initiator methionine as described in Sidrauski et al (eLife 2013). The construct was used to produce recombinant retroviruses using standard methods and the resulting viral supernatant was used to transduce HEK293T cells, which were then subsequently selected with puromycin to generate a stable cell line.
HEK293T cells carrying the ATF4 luciferase reporter were plated on polylysine coated 384-well plates (Greiner Bio-one) at 30,000 cells per well. Cells were treated the next day with 1 μg/mL tunicamycin and 200 nM of a compound of Formula (I) for 7 hours. Luminescence was measured using One Glo (Promega) as specified by the manufacturer. Cells were maintained in DMEM with L-glutamine supplemented with 10% heat-inactivated FBS (Gibco) and Antibiotic-Antimycotic solution (Gibco).
Table 2 below summarizes the EC50 data obtained using the ATF4-Luc assay for exemplary compounds of the invention.
As for `CC(C)(C)OC(=O)N1CCC=C(c2ncc(C(=O)NC34CC(NC(=O)COc5ccc(Cl)c(F)c5)(C3)C4)o2)C1` [Compound 150, tert-butyl 5-[5-({3-[2-(4-chloro-3-fluorophenoxy)acetamido]bicyclo[1.1.1]pentan-1-yl}carbamoyl)-1,3-oxazol-2-yl]-3,6-dihydropyridine-1(2H)-carboxylate], the EC50 (as a rule, the concentration at which the effect is half-maximal) was in the range of 50 to 250 nM.

In the case of `CCn1nc(C(=O)NC23CC(NC(=O)COc4ccc(Cl)c(F)c4)(C2)C3)cc1C` [Compound 836, N-{3-[2-(4-chloro-3-fluorophenoxy)acetamido]bicyclo[1.1.1]pentan-1-yl}-1-ethyl-5-methyl-1H-pyrazole-3-carboxamide], the EC50 was over 2000 nM.

In the case of `O=C(COc1ccc(Cl)c(F)c1)NC12CC(NC(=O)c3cc(C(=O)NC4CC(F)(F)C4)ccn3)(C1)C2` [Compound 263, N^2-{3-[2-(4-chloro-3-fluorophenoxy)acetamido]bicyclo[1.1.1]pentan-1-yl}-N^4-(3,3-difluorocyclobutyl)pyridine-2,4-dicarboxamide], the EC50 was in the range of 250 to 1000 nM.

In the case of `O=C(COc1ccc(Cl)c(F)c1)NC12CC(NC(=O)c3ccnnc3)(C1)C2` [Compound 762, N-{3-[2-(4-chloro-3-fluorophenoxy)acetamido]bicyclo[1.1.1]pentan-1-yl}pyridazine-4-carboxamide], the concentration for a half-maximal effect (EC50) is over 2000 nM.

As for `O=C(COc1ccc(Cl)c(F)c1)NC12CCC(NC(=O)c3cc(C(F)(F)F)no3)(CC1)C[C@@H]2O` [Compound 704, N-{(3S)-4-[2-(4-chloro-3-fluorophenoxy)acetamido]-3-hydroxybicyclo[2.2.2]octan-1-yl}-3-(trifluoromethyl)-1,2-oxazole-5-carboxamide], the EC50 is under 50 nM.

Regarding `Cc1nn(C)c2sc(C(=O)NC34CC(NC(=O)COc5ccc(Cl)c(F)c5)(C3)C4)cc12` [Compound 878, N-{3-[2-(4-chloro-3-fluorophenoxy)acetamido]bicyclo[1.1.1]pentan-1-yl}-1,3-dimethyl-1H-thieno[2,3-c]pyrazole-5-carboxamide], the EC50 fell in the range of 250 to 1000 nM.

As to `O=C(COc1ccc(Cl)c(F)c1)NC12CCC(NC(=O)c3cccnc3)(C1)C2` [Compound 477, N-{4-[2-(4-chloro-3-fluorophenoxy)acetamido]bicyclo[2.1.1]hexan-1-yl}pyridine-3-carboxamide], the EC50 was 1000 to 2000 nM.

Take `COc1cc(OC)nc(C(=O)NC23CC(NC(=O)COc4ccc(Cl)c(F)c4)(C2)C3)n1` [Compound 116, N-{3-[2-(4-chloro-3-fluorophenoxy)acetamido]bicyclo[1.1.1]pentan-1-yl}-4,6-dimethoxypyrimidine-2-carboxamide]: the EC50 was over 2000 nM.

Regarding `Cc1cc(C(=O)NC23CCC(NC(=O)COc4ccc(Cl)c(F)c4)(CC2)C(O)C3)no1` (centres unmarked) [Compound 272, N-{4-[2-(4-chloro-3-fluorophenoxy)acetamido]-3-hydroxybicyclo[2.2.2]octan-1-yl}-5-methyl-1,2-oxazole-3-carboxamide], the EC50 is 50 to 250 nM.

Take `COC/C=C/c1cnc(C(=O)NC23CC(NC(=O)COc4ccc(Cl)c(F)c4)(C2)C3)cn1` [Compound 171, N-{3-[2-(4-chloro-3-fluorophenoxy)acetamido]bicyclo[1.1.1]pentan-1-yl}-5-[(1E)-3-methoxyprop-1-en-1-yl]pyrazine-2-carboxamide]: the EC50 lay in the range of 50 to 250 nM.

As to `COc1ccc(C(=O)NC23CC(NC(=O)COc4ccc(Cl)c(F)c4)(C2)C3)nc1` [Compound 141, N-{3-[2-(4-chloro-3-fluorophenoxy)acetamido]bicyclo[1.1.1]pentan-1-yl}-5-methoxypyridine-2-carboxamide], the EC50 was 250 to 1000 nM.

For the compound `O=C(COc1ccc(Cl)c(F)c1)NC12CCC(NC(=O)c3cnn4ccccc34)(CC1)CC2O` (centres unmarked) [Compound 596, N-{4-[2-(4-chloro-3-fluorophenoxy)acetamido]-3-hydroxybicyclo[2.2.2]octan-1-yl}pyrazolo[1,5-a]pyridine-3-carboxamide], the EC50 is 250 to 1000 nM.

In the case of `O=C(COc1ccc(Cl)c(F)c1)NC12CC(Nc3nc(Cl)cc4nccn34)(C1)C2` [Compound 428, 2-(4-chloro-3-fluorophenoxy)-N-{3-[(7-chloroimidazo[1,2-c]pyrimidin-5-yl)amino]bicyclo[1.1.1]pentan-1-yl}acetamide], the EC50 was 250 to 1000 nM.

Regarding `O=C(COc1ccc(Cl)c(F)c1)NC12CC(NC(=O)c3ccc4cccnc4n3)(C1)C2` [Compound 669, N-{3-[2-(4-chloro-3-fluorophenoxy)acetamido]bicyclo[1.1.1]pentan-1-yl}-1,8-naphthyridine-2-carboxamide], the EC50 was in the range of 250 to 1000 nM.

Regarding `O=C(COc1ccc(Cl)c(F)c1)NC12CC(NC(=O)c3ccn4nccc4n3)(C1)C2` [Compound 631, N-{3-[2-(4-chloro-3-fluorophenoxy)acetamido]bicyclo[1.1.1]pentan-1-yl}pyrazolo[1,5-a]pyrimidine-5-carboxamide], the EC50 fell in the range of 50 to 250 nM.

As for `CC(C)c1nc(C(=O)NC23CCC(NC(=O)COc4ccc(Cl)c(F)c4)(CC2)C(O)C3)co1` (centres unmarked) [Compound 607, N-{4-[2-(4-chloro-3-fluorophenoxy)acetamido]-3-hydroxybicyclo[2.2.2]octan-1-yl}-2-(propan-2-yl)-1,3-oxazole-4-carboxamide], the EC50 was in the range of 50 to 250 nM.

As to `CC(=O)Nc1cccc(C(=O)NC23CC(NC(=O)COc4ccc(Cl)c(F)c4)(C2)C3)n1` [Compound 884, 6-acetamido-N-{3-[2-(4-chloro-3-fluorophenoxy)acetamido]bicyclo[1.1.1]pentan-1-yl}pyridine-2-carboxamide], the EC50 was 250 to 1000 nM.

On to `O=C(COc1ccc(Cl)c(F)c1)NC12CC(Nc3cc(-c4ccc(Cl)cc4)ccn3)(C1)C2` [Compound 415, 2-(4-chloro-3-fluorophenoxy)-N-(3-{[4-(4-chlorophenyl)pyridin-2-yl]amino}bicyclo[1.1.1]pentan-1-yl)acetamide], for which the EC50 is over 2000 nM.

In the case of `O=C(COc1ccc(Cl)c(F)c1)NC12CCC(NC(=O)c3ccc(F)cc3)(CC1)CC2O` (centres unmarked) [Compound 231, N-{4-[2-(4-chloro-3-fluorophenoxy)acetamido]-3-hydroxybicyclo[2.2.2]octan-1-yl}-4-fluorobenzamide], the EC50 was 50 to 250 nM.

For the compound `Cc1nc(C)c(C(=O)NC23CC(NC(=O)COc4ccc(Cl)c(F)c4)(C2)C3)s1` [Compound 238, N-{3-[2-(4-chloro-3-fluorophenoxy)acetamido]bicyclo[1.1.1]pentan-1-yl}-2,4-dimethyl-1,3-thiazole-5-carboxamide], the EC50 lay in the range of 50 to 250 nM.

On to `O=C(COc1ccc(Cl)c(F)c1)NC12CCC(NC(=O)c3cn4ccccc4n3)(CC1)CC2O` (centres unmarked) [Compound 601, N-{4-[2-(4-chloro-3-fluorophenoxy)acetamido]-3-hydroxybicyclo[2.2.2]octan-1-yl}imidazo[1,2-a]pyridine-2-carboxamide], for which the EC50 was in the range of 250 to 1000 nM.

As for `Cc1cc(C(=O)NC23CC(NC(=O)COc4ccc(Cl)c(Cl)c4)(C2)C3)on1` [Compound 431, N-{3-[2-(3,4-dichlorophenoxy)acetamido]bicyclo[1.1.1]pentan-1-yl}-3-methyl-1,2-oxazole-5-carboxamide], the EC50 was 50 to 250 nM.

On to `Cc1cc(C(=O)NC23CC(NC(=O)COc4ccc(Cl)c(F)c4)(C2)C3)nn1C` [Compound 848, N-{3-[2-(4-chloro-3-fluorophenoxy)acetamido]bicyclo[1.1.1]pentan-1-yl}-1,5-dimethyl-1H-pyrazole-3-carboxamide], for which the EC50 is under 50 nM.
